PubChem BioAssay (NCI)
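48-hour exposure; five concentrations; linearly interpolated endpoints. GI50: concentration for 50% inhibition of growth. TGI is the concentration that stops growth completely.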

Tests used:
Assay in all cases: growth of human tumour cells (NCI), 48 h
786-0 renal = system: 786-0 renal
A498 renal = system: A498 renal
A549 NSCLC = system: A549 NSCLC
ACHN renal = system: ACHN renal
BT-549 breast = system: BT-549 breast
CAKI-1 renal = system: CAKI-1 renal
CCRF-CEM leukemia = system: CCRF-CEM leukemia
COLO 205 colon = system: COLO 205 colon
DU-145 prostate = system: DU-145 prostate
EKVX NSCLC = system: EKVX NSCLC
HCC-2998 colon = system: HCC-2998 colon
HCT-116 colon = system: HCT-116 colon
HCT-15 colon = system: HCT-15 colon
HL-60(TB) leukemia = system: HL-60(TB) leukemia
HOP-62 NSCLC = system: HOP-62 NSCLC
HOP-92 NSCLC = system: HOP-92 NSCLC
HS 578T breast = system: HS 578T breast
HT29 colon = system: HT29 colon
IGROV1 ovarian = system: IGROV1 ovarian
K-562 leukemia = system: K-562 leukemia
KM12 colon = system: KM12 colon
LOX IMVI melanoma = system: LOX IMVI melanoma
M14 melanoma = system: M14 melanoma
MALME-3M melanoma = system: MALME-3M melanoma
MCF7 breast = system: MCF7 breast
MDA-MB-231 breast = system: MDA-MB-231 breast
MDA-MB-435 = system: MDA-MB-435
MOLT-4 leukemia = system: MOLT-4 leukemia
NCI-H226 lung = system: NCI-H226 lung
NCI-H23 lung = system: NCI-H23 lung
NCI-H460 lung = system: NCI-H460 lung
NCI-H522 lung = system: NCI-H522 lung
NCI/ADR-RES ovarian = system: NCI/ADR-RES ovarian
OVCAR-3 ovarian = system: OVCAR-3 ovarian
OVCAR-4 ovarian = system: OVCAR-4 ovarian
OVCAR-5 ovarian = system: OVCAR-5 ovarian
OVCAR-8 ovarian = system: OVCAR-8 ovarian
PC-3 prostate = system: PC-3 prostate
RPMI-8226 leukemia = system: RPMI-8226 leukemia
RXF 393 renal = system: RXF 393 renal
SF-268 CNS = system: SF-268 CNS
SF-295 CNS = system: SF-295 CNS
SF-539 CNS = system: SF-539 CNS
SK-MEL-2 melanoma = system: SK-MEL-2 melanoma
SK-MEL-28 melanoma = system: SK-MEL-28 melanoma
SK-MEL-5 melanoma = system: SK-MEL-5 melanoma
SK-OV-3 ovarian = system: SK-OV-3 ovarian
SN12C renal = system: SN12C renal
SNB-19 CNS = system: SNB-19 CNS
SNB-75 CNS = system: SNB-75 CNS
SR leukemia = system: SR leukemia
SW-620 colon = system: SW-620 colon
T-47D breast = system: T-47D breast
TK-10 renal = system: TK-10 renal
U251 CNS = system: U251 CNS
UACC-257 melanoma = system: UACC-257 melanoma
UACC-62 melanoma = system: UACC-62 melanoma
UO-31 renal = system: UO-31 renal
MDA-N = system: MDA-N

With `N/C(=N\OC(=O)c1ccccc1)C(C(=O)NOC(=O)c1ccccc1)C1CCCCC1` (configuration not stated) the GI50 (786-0 renal) was 13.9 µM, the TGI (786-0 renal) was 26.9 µM and the GI50 (A498 renal) was 14.8 µM. The TGI (A498 renal) was 28.7 µM, the GI50 (A549 NSCLC) was 2.08 µM and the TGI (A549 NSCLC) was 5.05 µM. For the same molecule, the GI50 (ACHN renal) was 3.04 µM, the TGI (ACHN renal) was 10.9 µM and the GI50 (BT-549 breast) was 3.98 µM. It also gave a TGI (BT-549 breast) of 15.1 µM, a GI50 (CAKI-1 renal) of 0.5 µM and a TGI (CAKI-1 renal) of 1.73 µM. The GI50 (CCRF-CEM leukemia) was 2.71 µM, the TGI (CCRF-CEM leukemia) was 9.79 µM and the GI50 (COLO 205 colon) was 11.6 µM. For the same molecule, the TGI (COLO 205 colon) was 26.8 µM, the GI50 (DU-145 prostate) was 2.76 µM and the TGI (DU-145 prostate) was 10.3 µM. It also gave a GI50 (EKVX NSCLC) of 6.1 µM, a TGI (EKVX NSCLC) of 20.9 µM and a GI50 (HCC-2998 colon) of 13.5 µM. It also gave a TGI (HCC-2998 colon) of 27.2 µM, a GI50 (HCT-116 colon) of 3.45 µM and a TGI (HCT-116 colon) of 13 µM. The GI50 (HCT-15 colon) was 9.65 µM, the TGI (HCT-15 colon) was 23.5 µM and the GI50 (HL-60(TB) leukemia) was 2.38 µM. The TGI (HL-60(TB) leukemia) was 6.07 µM, the GI50 (HOP-62 NSCLC) was 2.87 µM and the TGI (HOP-62 NSCLC) was 9.09 µM. It also gave a GI50 (HOP-92 NSCLC) of 2.39 µM, a TGI (HOP-92 NSCLC) of 7.72 µM and a GI50 (HS 578T breast) of 2.57 µM. For the same molecule, the TGI (HS 578T breast) was 7.93 µM, the GI50 (HT29 colon) was 16.1 µM and the TGI (HT29 colon) was 35.2 µM. For the same molecule, the GI50 (IGROV1 ovarian) was 1.66 µM, the TGI (IGROV1 ovarian) was 3.92 µM and the GI50 (K-562 leukemia) was 3.08 µM. For the same molecule, the TGI (K-562 leukemia) was 10.6 µM, the GI50 (KM12 colon) was 11.4 µM and the TGI (KM12 colon) was 25.1 µM. The GI50 (LOX IMVI melanoma) was 0.343 µM, the TGI (LOX IMVI melanoma) was 1.38 µM and the GI50 (M14 melanoma) was 10.9 µM. For the same molecule, the TGI (M14 melanoma) was 23 µM, the GI50 (MALME-3M melanoma) was 10.1 µM and the TGI (MALME-3M melanoma) was 27.5 µM. It also gave a GI50 (MCF7 breast) of 8.22 µM, a TGI (MCF7 breast) of 23 µM and a GI50 (MDA-MB-231 breast) of 18.1 µM. It also gave a TGI (MDA-MB-231 breast) of 70.9 µM, a GI50 (MDA-MB-435) of 2.21 µM and a TGI (MDA-MB-435) of 5.59 µM. The GI50 (MOLT-4 leukemia) was 6.62 µM, the TGI (MOLT-4 leukemia) was 49.8 µM and the GI50 (NCI-H226 lung) was 15.8 µM. For the same molecule, the TGI (NCI-H226 lung) was 34.1 µM, the GI50 (NCI-H23 lung) was 9.28 µM and the TGI (NCI-H23 lung) was 24.1 µM. It also gave a GI50 (NCI-H460 lung) of 2.85 µM, a TGI (NCI-H460 lung) of 9.61 µM and a GI50 (NCI-H522 lung) of 2.82 µM. The TGI (NCI-H522 lung) was 7.76 µM, the GI50 (NCI/ADR-RES ovarian) was 3.79 µM and the TGI (NCI/ADR-RES ovarian) was 16 µM. The GI50 (OVCAR-3 ovarian) was 4.56 µM, the TGI (OVCAR-3 ovarian) was 15.9 µM and the GI50 (OVCAR-4 ovarian) was 9.4 µM. For the same molecule, the TGI (OVCAR-4 ovarian) was 37.6 µM, the GI50 (OVCAR-5 ovarian) was 14.6 µM and the TGI (OVCAR-5 ovarian) was 28.2 µM. The GI50 (OVCAR-8 ovarian) was 3.38 µM, the TGI (OVCAR-8 ovarian) was 14.8 µM and the GI50 (PC-3 prostate) was 6.33 µM. It also gave a TGI (PC-3 prostate) of 20.5 µM, a GI50 (RPMI-8226 leukemia) of 3.12 µM and a TGI (RPMI-8226 leukemia) of 12.2 µM. For the same molecule, the GI50 (RXF 393 renal) was 8.59 µM, the TGI (RXF 393 renal) was 65.1 µM and the GI50 (SF-268 CNS) was 2.39 µM. The TGI (SF-268 CNS) was 6.7 µM, the GI50 (SF-295 CNS) was 2.11 µM and the TGI (SF-295 CNS) was 5.73 µM. It also gave a GI50 (SF-539 CNS) of 7.22 µM, a TGI (SF-539 CNS) of 20.1 µM and a GI50 (SK-MEL-2 melanoma) of 12.5 µM. For the same molecule, the TGI (SK-MEL-2 melanoma) was 26.6 µM, the GI50 (SK-MEL-28 melanoma) was 16.2 µM and the TGI (SK-MEL-28 melanoma) was 50.7 µM. The GI50 (SK-MEL-5 melanoma) was 10.3 µM, the TGI (SK-MEL-5 melanoma) was 22.8 µM and the GI50 (SK-OV-3 ovarian) was 15.8 µM. It also gave a TGI (SK-OV-3 ovarian) of 29.7 µM, a GI50 (SN12C renal) of 13.4 µM and a TGI (SN12C renal) of 69.4 µM. It also gave a GI50 (SNB-19 CNS) of 15.4 µM, a TGI (SNB-19 CNS) of 39.1 µM and a GI50 (SNB-75 CNS) of 2.79 µM. For the same molecule, the TGI (SNB-75 CNS) was 11.9 µM, the GI50 (SR leukemia) was 1.99 µM and the TGI (SR leukemia) was 4.99 µM. For the same molecule, the GI50 (SW-620 colon) was 11.5 µM, the TGI (SW-620 colon) was 27.7 µM and the GI50 (T-47D breast) was 7.57 µM. For the same molecule, the TGI (T-47D breast) was 28.2 µM, the GI50 (TK-10 renal) was 12.4 µM and the TGI (TK-10 renal) was 26.9 µM. The GI50 (U251 CNS) was 1.78 µM, the TGI (U251 CNS) was 3.87 µM and the GI50 (UACC-257 melanoma) was 13.7 µM. It also gave a TGI (UACC-257 melanoma) of 28.7 µM, a GI50 (UACC-62 melanoma) of 11.4 µM and a TGI (UACC-62 melanoma) of 32.9 µM. It also gave a GI50 (UO-31 renal) of 2.01 µM and a TGI (UO-31 renal) of 3.96 µM.
`O=[N+]([O-])/C(Cl)=C(/C(Cl)=C(Cl)Cl)N1CCCCC1` gave a TGI (786-0 renal) of 23.4 µM, a TGI (A498 renal) of 33.4 µM and a TGI (A549 NSCLC) of 28.5 µM. The TGI (ACHN renal) was 30.7 µM, the TGI (CAKI-1 renal) was 24.9 µM and the TGI (CCRF-CEM leukemia) was 19.7 µM. It also gave a TGI (COLO 205 colon) of 22.7 µM, a TGI (DU-145 prostate) of 27 µM and a TGI (EKVX NSCLC) of 39.7 µM. For the same molecule, the TGI (HCC-2998 colon) was 33.4 µM, the TGI (HCT-116 colon) was 18.9 µM and the TGI (HCT-15 colon) was 19.1 µM. For the same molecule, the TGI (HL-60(TB) leukemia) was 4.83 µM, the TGI (HOP-62 NSCLC) was 40.8 µM and the TGI (HOP-92 NSCLC) was 30.2 µM. The TGI (HS 578T breast) was 64.4 µM, the TGI (HT29 colon) was 29.5 µM and the TGI (IGROV1 ovarian) was 23.4 µM. It also gave a TGI (K-562 leukemia) of 25.3 µM, a TGI (KM12 colon) of 27.6 µM and a TGI (LOX IMVI melanoma) of 25.5 µM. It also gave a TGI (M14 melanoma) of 23.3 µM, a TGI (MALME-3M melanoma) of 11.6 µM and a TGI (MCF7 breast) of 17.4 µM. For the same molecule, the TGI (MDA-MB-231 breast) was 41.6 µM, the TGI (MDA-MB-435) was 20.8 µM and the TGI (MDA-N) was 23.9 µM. It also gave a TGI (MOLT-4 leukemia) of 11.7 µM, a TGI (NCI-H226 lung) of 34.1 µM and a TGI (NCI-H23 lung) of 22.2 µM. The TGI (NCI-H460 lung) was 43 µM, the TGI (NCI-H522 lung) was 23.2 µM and the TGI (NCI/ADR-RES ovarian) was 19.1 µM. For the same molecule, the TGI (OVCAR-3 ovarian) was 22.8 µM, the TGI (OVCAR-4 ovarian) was 27.5 µM and the TGI (OVCAR-5 ovarian) was 29.2 µM. It also gave a TGI (OVCAR-8 ovarian) of 22.2 µM, a TGI (PC-3 prostate) of 43.8 µM and a TGI (RPMI-8226 leukemia) of 18.2 µM. For the same molecule, the TGI (RXF 393 renal) was 20.6 µM, the TGI (SF-268 CNS) was 75.1 µM and the TGI (SF-295 CNS) was 54.3 µM. It also gave a TGI (SF-539 CNS) of 31.9 µM, a TGI (SK-MEL-2 melanoma) of 48 µM and a TGI (SK-MEL-28 melanoma) of 30.3 µM. The TGI (SK-MEL-5 melanoma) was 20.2 µM, the TGI (SK-OV-3 ovarian) was > 100 µM and the TGI (SN12C renal) was 27.4 µM. It also gave a TGI (SNB-19 CNS) of 54.1 µM, a TGI (SNB-75 CNS) of 56 µM and a TGI (SR leukemia) of 7.5 µM. The TGI (T-47D breast) was 34 µM, the TGI (TK-10 renal) was 35.8 µM and the TGI (U251 CNS) was 26.8 µM. It also gave a TGI (UACC-62 melanoma) of 17.1 µM and a TGI (UO-31 renal) of 25.7 µM.
